Data as given in PMC8980233, “Differentiating the Neuropharmacological Properties of Nicotinic Acetylcholine Receptor-Activating Alkaloids” (Frontiers in Pharmacology, 2022).
“Also recorded” adds a separate entry of the source.

Assays:
[1] = 0.5 mg/kg; ref Petersen et al. (1984); cited from earlier work
α7 nAChR [2] = biological target: T1, α7 nAChR (Homo sapiens, UniProt P36544); experiment: Radioligand displacement binding assay
Procedure: (§1) All binding and functional assays for molecular target characterization were conducted by Eurofins Cerep SA (Celle-Lévescault, France) and Eurofins Panlabs Discovery Services Taiwan, Ltd. (New Taipei City, Taiwan) using their standard in vitro binding and functional assays (Supplementary Material S2). […] Negative values were considered to be an artifact arising from, for example, compounds interfering with the assay readout.
(§2) The radioligand displacement binding assays employed the gold standard filtration method using membrane preparations from stable cell lines (HEK-293 or CHO cells) expressing human or rodent target proteins to determine the interaction of the compounds with specific receptors, channels, and transporters. For this purpose, the competitive binding of test compounds against a [^125I]- [^3H]-, or [^35S]-labelled agonist and/or antagonist was determined.
(§3) Assay Source Ligand Conc. Kd Non Specific Incubation Detection Bibl.
(§4) N neuronal α7 (h) SH-SY5Y cells [125I]α-bungarotoxin 0.05 nM 0.34 nM α-bungarotoxin 120 min Scintillation 347
(§5) (antagonist radioligand) (human (1 µM) 37°C counting

α7 nAChR [3] = biological target: T1, α7 nAChR; experiment: nAChR functional assay, automated patch-clamp; type: cell-based; details: mean ± S.D.; no effect = up to 33 μM
Procedure: Electrophysiological responses were recorded using an automated patch-clamp Patchliner Octo® system (Nanion Technologies, Munich, Germany) equipped with two EPC-10 Quadro patch-clamp amplifiers (HEKA Elektronik, Lambrecht, Germany) as described by ([Alijevic et al., 2020]). In brief, Chinese hamster ovary (CHO) or human embryonic kidney-293 (HEK-293) cells stably expressing human nAChRs (Charles River Laboratories, Wilmington, MA, United States) were maintained in DMEM/F12 medium (Gibco, Thermo Fisher Scientific, Waltham, MA, United States) supplemented with 10% heat-inactivated fetal bovine serum (FBS; Gibco) and penicillin–streptomycin (100 U/mL and 0.1 mg/ml, respectively; Sigma-Aldrich, St. Louis, MO, United States) at 37°C in 5% CO2 and 70% humidity. The following selection antibiotics were used for the cell lines: G418 (0.25 mg/ml; Sigma-Aldrich) and Zeocin^TM (0.4 mg/ml; InvivoGen, San Diego, CA, United States) for α7/Ric3 nAChR and α3β4 nAChR cells; puromycin (8 μg/ml; InvivoGen) and hygromycin B (0.4 mg/ml; Gibco) for α4β2 nAChR cells; and G418 (0.5 mg/ml), puromycin (0.25 μg/ml), and hygromycin B (0.02 mg/ml) for α6/3β2/β3 nAChR cells. The cells were used for characterizing nAChR pharmacology, because no endogenous ionotropic nicotinic receptors are found ([Roncarati et al., 2008]; [Papke and Smith-Maxwell, 2009]; [Kirsch et al., 2016]; [Scheffel et al., 2018]). The subunit distributions in the cells have been previously described ([Alijevic et al., 2020]). The human nAChRs were selected due to the lack of commercially available nAChR expression systems for mouse or zebrafish. The translatability of findings between zebrafish and human nAChR activities have been previously reported ([Papke and Smith-Maxwell, 2009]; [Papke et al., 2012]; [Alijevic et al., 2020]).
On the day of the experiment, nAChR-expressing cells were suspended in extracellular solution (in mM: 140 NaCl, 4KCl, one MgCl2, two CaCl2, five glucose, and 10 HEPES, adjusted to pH 7.4 with NaOH (298 mOsmol)), then placed in the Patchliner Octo® system. The internal solution contained in mM: 50 KCl, 60 kF, 10 NaCl, 20 EGTA, and 10 HEPES, adjusted to pH 7.2 with KOH (285 mOsmol). […] Data were analyzed using the Patchmaster software and corrected for leak current. The data acceptance criteria were as follows: seal resistance >100 MΩ; seal resistance loss variation <50%; access resistance <20 MΩ; and minimum current amplitude elicited by maximal effect concentration acetylcholine >50 pA. Offline data analysis was performed in OpenOffice™ (v4.1.2; The Apache Software Foundation, Wakefield, MA, United States). Data are presented as mean ± S.D. All experiments were performed at room temperature (24°C) and repeated at least three times. Igor Pro (v6.2.2.2; WaveMetrics, Lake Oswego, OR, United States) or Prism (v8.2.1) were used for assessing the concentration–response curves.

α4β2 nAChR = α4β2 nAChR (Homo sapiens, UniProt P17787+P43681); experiment: Radioligand displacement binding assay
Sequence of α4β2 nAChR (P43681 29-627 limits assumed): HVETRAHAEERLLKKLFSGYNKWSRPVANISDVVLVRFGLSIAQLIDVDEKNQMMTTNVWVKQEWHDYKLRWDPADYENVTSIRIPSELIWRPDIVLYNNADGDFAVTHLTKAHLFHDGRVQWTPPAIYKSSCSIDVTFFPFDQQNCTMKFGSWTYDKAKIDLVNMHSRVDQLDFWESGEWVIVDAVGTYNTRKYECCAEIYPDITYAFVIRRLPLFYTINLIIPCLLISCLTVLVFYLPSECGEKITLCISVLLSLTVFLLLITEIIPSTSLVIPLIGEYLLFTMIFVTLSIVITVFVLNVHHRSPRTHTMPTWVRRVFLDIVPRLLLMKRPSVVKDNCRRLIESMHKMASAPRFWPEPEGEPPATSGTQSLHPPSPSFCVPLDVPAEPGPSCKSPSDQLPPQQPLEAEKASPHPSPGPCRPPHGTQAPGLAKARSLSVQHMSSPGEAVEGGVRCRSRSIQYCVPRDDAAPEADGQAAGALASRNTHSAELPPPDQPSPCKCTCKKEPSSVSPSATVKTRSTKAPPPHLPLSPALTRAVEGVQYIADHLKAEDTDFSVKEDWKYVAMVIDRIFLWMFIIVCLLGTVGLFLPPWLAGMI
Sequence of α4β2 nAChR (P17787 26-502): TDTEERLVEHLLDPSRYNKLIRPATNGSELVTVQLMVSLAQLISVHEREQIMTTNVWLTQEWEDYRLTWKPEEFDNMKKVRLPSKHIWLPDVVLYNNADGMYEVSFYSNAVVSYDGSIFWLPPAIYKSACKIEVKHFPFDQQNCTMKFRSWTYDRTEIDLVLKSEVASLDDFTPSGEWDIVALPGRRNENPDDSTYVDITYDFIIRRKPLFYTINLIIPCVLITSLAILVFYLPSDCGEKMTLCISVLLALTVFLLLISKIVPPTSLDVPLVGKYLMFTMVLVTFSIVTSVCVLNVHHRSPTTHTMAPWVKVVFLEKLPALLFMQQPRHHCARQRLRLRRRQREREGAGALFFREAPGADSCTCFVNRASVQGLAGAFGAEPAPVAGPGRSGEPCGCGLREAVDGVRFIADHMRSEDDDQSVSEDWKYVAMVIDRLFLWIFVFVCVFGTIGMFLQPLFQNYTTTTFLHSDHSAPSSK
Procedure: as §1, §2, §3, §4, §5

T1 sequence (P36544 23-502): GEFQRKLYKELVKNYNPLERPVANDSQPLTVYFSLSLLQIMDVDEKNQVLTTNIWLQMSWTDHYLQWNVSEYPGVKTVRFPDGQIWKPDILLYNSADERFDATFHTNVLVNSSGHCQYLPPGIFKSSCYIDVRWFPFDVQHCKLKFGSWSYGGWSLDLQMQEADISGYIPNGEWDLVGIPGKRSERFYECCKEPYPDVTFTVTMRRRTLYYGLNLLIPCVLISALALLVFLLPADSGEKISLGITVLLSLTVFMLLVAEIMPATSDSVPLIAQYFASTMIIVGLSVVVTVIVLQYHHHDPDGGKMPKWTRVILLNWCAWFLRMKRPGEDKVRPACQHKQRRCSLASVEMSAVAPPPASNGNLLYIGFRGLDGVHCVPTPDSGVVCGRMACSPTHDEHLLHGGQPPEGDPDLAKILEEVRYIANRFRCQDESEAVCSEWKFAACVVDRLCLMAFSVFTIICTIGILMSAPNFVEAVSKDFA

Row | Structure (SMILES) | plasma concentration [1] [µM] | binding for α7 nAChR (α7 nAChR [2]) | α7 nAChR EC50 in µM (α7 nAChR [3]) | binding for α4β2 nAChR (α4β2 nAChR)
1 | CN1CCC[C@H]1c1cccnc1 [Nicotine, (-)-Nicotine] | 5 to 6 | – | – | –
2 | CN1C(=O)CC[C@H]1c1cccnc1 [Cotinine, (-)-cotinine] | – | undetectable | no detectable activities; also recorded: No effect* | barely detectable
